Data on eleven compounds can be found in PubChem BioAssay (NCI).

What all share (test): NCI-60 cell line screen, 48 h
In test [1] the test system is SNB-75 CNS.
Test [2] concerns KM12 colon.
The test system of test [3] is UACC-257 melanoma.
The subject of test [4] is NCI-H226 lung.
In test [5] the test system is OVCAR-4 ovarian.
In test [6] the test system is MOLT-4 leukemia.
In test [7] the test system is HCT-15 colon.
Test [8] deals with M14 melanoma.
Test [9] concerns LOX IMVI melanoma.

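Results reflect a 48-hour exposure of cells in 96-well plates to compound at five concentrations. Here, GI50 denotes the concentration required for 50% inhibition of growth. TGI is the concentration that stops growth completely.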

As for `CC(=O)NNC(=S)/N=C/c1c(O)cc(C)oc1=O`, the TGI in [1], in test [2], in test [3], in [4], in [5] and in test [6] was more than 100 µM throughout. Besides, the TGI in [7], in test [8] and in test [9] was more than 100 µM each time.

Turning to `CC1Cc2c(N)nc(N3CCOCC3)nc2NC1=O` (stereo not drawn), the TGI in [1], in test [2], in [3], in test [4], in test [6] and in test [7] was more than 100 µM in each case. For the same compound, the TGI in test [8] and in test [9] was more than 100 µM each time.

Regarding `COc1cc2ccnc3c2c(c1OC)CC1CC(O)C(OC)CC31` (stereo not drawn), the TGI in test [1], in [2], in test [3], in test [4], in test [5] and in [6] was more than 100 µM throughout. Besides, the TGI in [7], in test [8] and in test [9] was more than 100 µM throughout.

Turning to `C[C@@H](NC1CCC[C@@H]1O)c1ccccc1` (stereo partly drawn), the TGI in test [1], in test [2], in [3], in test [4], in [5] and in test [6] was more than 100 µM each time. For the same compound, the TGI in [7], in [8] and in test [9] was more than 100 µM each time.

For the compound `Cc1cccc2c1O/C(=C\c1ncc([N+](=O)[O-])n1C)C2=O`, the GI50 in [1] was 0.781 µM; in [2] it was 0.262 µM; in [3], 0.542 µM; in test [4], 1.08 µM; in test [5] it was 0.635 µM; in test [6], 0.0449 µM. Also, the GI50 in test [7] is 0.0874 µM; in test [8], 0.169 µM; in test [9] it was 0.092 µM. Moreover, the TGI in [1] amounted to 3.36 µM; in [2], 0.877 µM; in test [3], 5.2 µM; in test [4] it was 4.29 µM; in [5] it was 6.65 µM; in test [6], 0.833 µM. In addition, the TGI is 0.318 µM in test [7], 0.5 µM in test [8] and 0.387 µM in [9].

Regarding `N#Cc1ccc(-c2nc3ccc(Cl)cc3[nH]2)cc1`, the TGI in test [1], in test [2], in test [4], in test [6], in test [7] and in test [8] was more than 100 µM each time.

`O=C(COc1ccc(Cl)cc1)N1N=C(c2ccc([N+](=O)[O-])o2)CC1(O)c1ccccc1` (stereo not drawn): the TGI is 27.7 µM in [2]; 15.6 µM in test [3]; 55.6 µM in test [4]; 26.7 µM in test [5]; 47.3 µM in test [6]; 18.5 µM in [7]. In addition, the TGI in [8] was found to be 29.5 µM; in test [9] it was 23.8 µM.

Turning to `S=P(c1ccccc1)(c1ccccc1)C1(C2(P(=S)(c3ccccc3)c3ccccc3)CC2)CC1`, the TGI in test [1], in test [2], in test [4], in test [5], in [6] and in [7] was more than 100 µM throughout. The TGI in [8] and in [9] was more than 100 µM throughout.

Consider `COc1cc2c(=O)n(CCCn3ccnc3)c3c4cc5c(cc4ccc3c2cc1OC)OCO5`, for which the GI50 was 0.298 µM in [1]; 1.37 µM in test [2]; 0.246 µM in test [4]; 1.17 µM in [7]; 0.698 µM in test [8]. Also, the TGI in test [1] was 9.45 µM; in [2], more than 100 µM; in test [4], more than 100 µM; in [7], more than 100 µM; in [8], more than 100 µM.

As to `NCCCn1c2c(c3cc4c(cc3c1=O)OCO4)C(=O)c1ccccc1-2`, the GI50 in [2] was 0.757 µM; in [3], 1.38 µM; in test [4], 4.09 µM; in test [5], 0.199 µM; in test [6], 0.0223 µM; in test [7] it was 0.554 µM. The GI50 is 0.43 µM in test [8] and 0.14 µM in test [9]. For the same compound, the TGI in test [2] is 2.13 µM; in test [3], 4.7 µM; in test [4], 24.8 µM; in [5], 0.721 µM; in [6], 0.0742 µM; in test [7], 1.94 µM. Also, the TGI in test [8] was 1.1 µM; in test [9], more than 100 µM.

Take `C/C=C1\C(=O)O[C@@H]2C1C[C@@H]1O[C@H]2[C@H](C)CCC/C(C)=C/CC[C@@]1(C)O` (stereo partly drawn): the GI50 is 9.81 µM in test [1]; 13.9 µM in test [2]; 4.2 µM in test [3]; 4.59 µM in test [6]; 5.51 µM in test [7]; 5.8 µM in [9]. Besides, the TGI is 33.4 µM in test [1]; 31.7 µM in test [2]; 10.9 µM in test [3]; more than 100 µM in [6]; 21.8 µM in test [7]; 21.5 µM in [9].
